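Protocol summary: plate cells (96-well), add compound at 5 concentrations, incubate 48 h, interpolate endpoints linearly. TGI is the concentration that stops growth completely.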
Key:
Assay in all cases: inhibition of tumour cell growth, NCI panel, 48 h
786-0 renal = tested on: 786-0 renal
A498 renal = tested on: A498 renal
A549 NSCLC = tested on: A549 NSCLC
ACHN renal = tested on: ACHN renal
BT-549 breast = tested on: BT-549 breast
CAKI-1 renal = tested on: CAKI-1 renal
CCRF-CEM leukemia = tested on: CCRF-CEM leukemia
COLO 205 colon = tested on: COLO 205 colon
DU-145 prostate = tested on: DU-145 prostate
EKVX NSCLC = tested on: EKVX NSCLC
HCT-15 colon = tested on: HCT-15 colon
HL-60(TB) leukemia = tested on: HL-60(TB) leukemia
HOP-62 NSCLC = tested on: HOP-62 NSCLC
HOP-92 NSCLC = tested on: HOP-92 NSCLC
HS 578T breast = tested on: HS 578T breast
HT29 colon = tested on: HT29 colon
IGROV1 ovarian = tested on: IGROV1 ovarian
K-562 leukemia = tested on: K-562 leukemia
KM12 colon = tested on: KM12 colon
LOX IMVI melanoma = tested on: LOX IMVI melanoma
M14 melanoma = tested on: M14 melanoma
MALME-3M melanoma = tested on: MALME-3M melanoma
MDA-MB-231 breast = tested on: MDA-MB-231 breast
MDA-MB-435 = tested on: MDA-MB-435
MDA-N = tested on: MDA-N
MOLT-4 leukemia = tested on: MOLT-4 leukemia
NCI-H23 lung = tested on: NCI-H23 lung
NCI-H460 lung = tested on: NCI-H460 lung
NCI-H522 lung = tested on: NCI-H522 lung
OVCAR-3 ovarian = tested on: OVCAR-3 ovarian
OVCAR-4 ovarian = tested on: OVCAR-4 ovarian
OVCAR-5 ovarian = tested on: OVCAR-5 ovarian
OVCAR-8 ovarian = tested on: OVCAR-8 ovarian
PC-3 prostate = tested on: PC-3 prostate
RPMI-8226 leukemia = tested on: RPMI-8226 leukemia
SF-268 CNS = tested on: SF-268 CNS
SF-295 CNS = tested on: SF-295 CNS
SF-539 CNS = tested on: SF-539 CNS
SK-MEL-2 melanoma = tested on: SK-MEL-2 melanoma
SK-MEL-28 melanoma = tested on: SK-MEL-28 melanoma
SK-MEL-5 melanoma = tested on: SK-MEL-5 melanoma
SK-OV-3 ovarian = tested on: SK-OV-3 ovarian
SN12C renal = tested on: SN12C renal
SNB-19 CNS = tested on: SNB-19 CNS
SNB-75 CNS = tested on: SNB-75 CNS
SR leukemia = tested on: SR leukemia
SW-620 colon = tested on: SW-620 colon
T-47D breast = tested on: T-47D breast
TK-10 renal = tested on: TK-10 renal
U251 CNS = tested on: U251 CNS
UACC-257 melanoma = tested on: UACC-257 melanoma
UACC-62 melanoma = tested on: UACC-62 melanoma
UO-31 renal = tested on: UO-31 renal
HCC-2998 colon = tested on: HCC-2998 colon
HCT-116 colon = tested on: HCT-116 colon
MCF7 breast = tested on: MCF7 breast
NCI-H226 lung = tested on: NCI-H226 lung
NCI/ADR-RES ovarian = tested on: NCI/ADR-RES ovarian
RXF 393 renal = tested on: RXF 393 renal

Cc1c2cnccc2nc2[nH]c3ccncc3c12
TGI (786-0 renal): 63.1 µM
TGI (A498 renal): 47.5 µM
TGI (A549 NSCLC): > 100 µM
TGI (ACHN renal): 13.6 µM
TGI (BT-549 breast): 63.8 µM
TGI (CAKI-1 renal): 24.9 µM
TGI (CCRF-CEM leukemia): 32.6 µM
TGI (COLO 205 colon): > 100 µM
TGI (DU-145 prostate): > 100 µM
TGI (EKVX NSCLC): 96.9 µM
TGI (HCT-15 colon): 28.8 µM
TGI (HL-60(TB) leukemia): 61.9 µM
TGI (HOP-62 NSCLC): 18.4 µM
TGI (HOP-92 NSCLC): 25.3 µM
TGI (HS 578T breast): > 100 µM
TGI (HT29 colon): > 100 µM
TGI (IGROV1 ovarian): 20.4 µM
TGI (K-562 leukemia): > 100 µM
TGI (KM12 colon): 41.8 µM
TGI (LOX IMVI melanoma): 11.9 µM
TGI (M14 melanoma): 20.6 µM
TGI (MALME-3M melanoma): 14.1 µM
TGI (MDA-MB-231 breast): > 100 µM
TGI (MDA-MB-435): 27.6 µM
TGI (MDA-N): 43.2 µM
TGI (MOLT-4 leukemia): > 100 µM
TGI (NCI-H23 lung): 6.9 µM
TGI (NCI-H460 lung): 6.06 µM
TGI (NCI-H522 lung): 18.5 µM
TGI (OVCAR-3 ovarian): 42.4 µM
TGI (OVCAR-4 ovarian): > 100 µM
TGI (OVCAR-5 ovarian): 40.5 µM
TGI (OVCAR-8 ovarian): > 100 µM
TGI (PC-3 prostate): > 100 µM
TGI (RPMI-8226 leukemia): 19.5 µM
TGI (SF-268 CNS): 7.62 µM
TGI (SF-295 CNS): 52.5 µM
TGI (SF-539 CNS): > 100 µM
TGI (SK-MEL-2 melanoma): 27.6 µM
TGI (SK-MEL-28 melanoma): > 100 µM
TGI (SK-MEL-5 melanoma): 20.6 µM
TGI (SK-OV-3 ovarian): > 100 µM
TGI (SN12C renal): > 100 µM
TGI (SNB-19 CNS): > 100 µM
TGI (SNB-75 CNS): > 100 µM
TGI (SR leukemia): 11.5 µM
TGI (SW-620 colon): 65.8 µM
TGI (T-47D breast): > 100 µM
TGI (TK-10 renal): 24.3 µM
TGI (U251 CNS): > 100 µM
TGI (UACC-257 melanoma): 94.9 µM
TGI (UACC-62 melanoma): 41.5 µM
TGI (UO-31 renal): 28.8 µM

CCOC(=O)N1CCN(C(=O)Nc2cccc3ccccc23)CC1
TGI (A498 renal): > 10 µM
TGI (A549 NSCLC): > 10 µM
TGI (ACHN renal): > 10 µM
TGI (CAKI-1 renal): > 10 µM
TGI (CCRF-CEM leukemia): > 10 µM
TGI (COLO 205 colon): > 10 µM
TGI (DU-145 prostate): > 10 µM
TGI (EKVX NSCLC): > 10 µM
TGI (HCC-2998 colon): > 10 µM
TGI (HCT-116 colon): > 10 µM
TGI (HCT-15 colon): > 10 µM
TGI (HL-60(TB) leukemia): > 10 µM
TGI (HOP-62 NSCLC): > 10 µM
TGI (HS 578T breast): > 10 µM
TGI (HT29 colon): > 10 µM
TGI (IGROV1 ovarian): > 10 µM
TGI (K-562 leukemia): > 10 µM
TGI (KM12 colon): > 10 µM
TGI (LOX IMVI melanoma): > 10 µM
TGI (M14 melanoma): > 10 µM
TGI (MALME-3M melanoma): > 10 µM
TGI (MCF7 breast): > 10 µM
TGI (MDA-MB-231 breast): > 10 µM
TGI (MDA-MB-435): > 10 µM
TGI (MDA-N): > 10 µM
TGI (MOLT-4 leukemia): > 10 µM
TGI (NCI-H226 lung): > 10 µM
TGI (NCI-H23 lung): > 10 µM
TGI (NCI-H460 lung): > 10 µM
TGI (NCI-H522 lung): > 10 µM
TGI (NCI/ADR-RES ovarian): > 10 µM
TGI (OVCAR-3 ovarian): > 10 µM
TGI (OVCAR-4 ovarian): > 10 µM
TGI (OVCAR-5 ovarian): > 10 µM
TGI (OVCAR-8 ovarian): > 10 µM
TGI (PC-3 prostate): > 10 µM
TGI (RPMI-8226 leukemia): > 10 µM
TGI (RXF 393 renal): > 10 µM
TGI (SF-268 CNS): > 10 µM
TGI (SF-295 CNS): > 10 µM
TGI (SF-539 CNS): > 10 µM
TGI (SK-MEL-2 melanoma): > 10 µM
TGI (SK-MEL-28 melanoma): > 10 µM
TGI (SK-MEL-5 melanoma): > 10 µM
TGI (SK-OV-3 ovarian): > 10 µM
TGI (SN12C renal): > 10 µM
TGI (SNB-19 CNS): > 10 µM
TGI (SNB-75 CNS): > 10 µM
TGI (SR leukemia): > 10 µM
TGI (SW-620 colon): > 10 µM
TGI (T-47D breast): > 10 µM
TGI (TK-10 renal): > 10 µM
TGI (U251 CNS): > 10 µM
TGI (UACC-62 melanoma): > 10 µM
TGI (UO-31 renal): > 10 µM

Source: PubChem BioAssay (NCI)
